Test results reported in ChEMBL document CHEMBL1201862, “PubChem BioAssay data set” (2004).
Activity calls are given as the source filed them.

Tests used:
[1] = target: T1, Orexin/Hypocretin receptor type 1 (Homo sapiens, UniProt O43613); assay: (§1) Fluorescence-based cell-based high throughput dose response assay for antagonists of the orexin 1 receptor (OX1R; HCRTR1). [Related pubchem assays (depositor defined):AID434989, AID435008, AID463079, AID485270, AID492963, AID492964, AID492965, AID493232, AID504717, AID504718]; assay type: functional
T1 sequence (O43613 whole entry): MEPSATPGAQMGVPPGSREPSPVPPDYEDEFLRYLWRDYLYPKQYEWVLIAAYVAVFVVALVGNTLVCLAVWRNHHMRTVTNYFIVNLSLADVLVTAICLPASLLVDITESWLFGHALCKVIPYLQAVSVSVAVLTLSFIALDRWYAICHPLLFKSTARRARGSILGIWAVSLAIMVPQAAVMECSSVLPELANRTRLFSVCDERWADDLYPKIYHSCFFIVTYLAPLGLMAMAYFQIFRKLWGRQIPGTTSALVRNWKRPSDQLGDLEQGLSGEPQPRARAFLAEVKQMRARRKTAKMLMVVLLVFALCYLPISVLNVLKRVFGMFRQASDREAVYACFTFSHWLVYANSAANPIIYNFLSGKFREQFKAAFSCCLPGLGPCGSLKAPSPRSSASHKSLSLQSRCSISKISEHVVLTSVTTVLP

CHO-K1 = assay: (§2) Counterscreen for antagonists of the orexin 1 receptor (OX1R; HCRTR1): Homogeneous time resolved fluorescence (HTRF)-based cell-based dose response assay to identify antagonists of the parental CHO-K1 cell line. [Related pubchem assays (depositor defined):AID434989, AID435008, AID463079, AID485270, AID492963, AID492964, AID492965, AID493232, AID504699, AID504701]; assay type: functional; conditions: Cricetulus griseus
Orexin receptor type 2 [2] = target: T2, Orexin receptor type 2 (Homo sapiens, UniProt O43614); assay: Counterscreen assay for antagonists of the orexin 1 receptor (OX1R; HCRTR1): Fluorescence-based cell-based dose response assay for antagonists of the orexin 2 receptor (OX2R; HCRTR2), run by assay provider.; assay type: functional
T2 sequence (O43614 whole entry): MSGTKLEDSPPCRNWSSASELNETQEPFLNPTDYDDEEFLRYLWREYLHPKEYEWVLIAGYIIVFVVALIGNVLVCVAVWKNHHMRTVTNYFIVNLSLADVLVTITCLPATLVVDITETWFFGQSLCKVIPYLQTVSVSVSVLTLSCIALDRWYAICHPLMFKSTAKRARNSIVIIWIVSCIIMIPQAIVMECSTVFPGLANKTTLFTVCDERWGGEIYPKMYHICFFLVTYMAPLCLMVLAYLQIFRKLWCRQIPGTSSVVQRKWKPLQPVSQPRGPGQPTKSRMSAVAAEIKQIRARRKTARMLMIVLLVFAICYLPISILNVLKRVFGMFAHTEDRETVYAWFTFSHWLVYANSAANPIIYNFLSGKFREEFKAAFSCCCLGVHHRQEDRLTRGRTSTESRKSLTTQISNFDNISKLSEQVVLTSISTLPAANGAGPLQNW

Orexin receptor type 2 [3] = target: T2, Orexin receptor type 2; assay: Counterscreen assay for antagonists of the orexin 1 receptor (OX1R; HCRTR1): Homogeneous Time Resolved Fluorescence (HTRF)-based cell-based dose response assay for antagonists of the orexin 2 receptor (OX2R; HCRTR2), run by assay provider.; assay type: functional
[4] = target: T1, Orexin/Hypocretin receptor type 1; assay: as §1, with “Homogeneous Time Resolved Fluorescence (HTRF)-based” for “Fluorescence-based”; assay type: functional
[5] = as §2, with “Fluorescence-based” for “Homogeneous time resolved fluorescence (HTRF)-based”, “cell-based high throughput” for “cell-based”, “CHO” for “CHO-K1”; assay type: functional
Cysteine protease ATG4B = target: T3, Cysteine protease ATG4B (Homo sapiens, UniProt Q9Y4P1); assay type: functional;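 note: Fluorescence-based dose-response confirmation assay measuring inhibition of ATG4B activity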
T3 sequence (Q9Y4P1 whole entry): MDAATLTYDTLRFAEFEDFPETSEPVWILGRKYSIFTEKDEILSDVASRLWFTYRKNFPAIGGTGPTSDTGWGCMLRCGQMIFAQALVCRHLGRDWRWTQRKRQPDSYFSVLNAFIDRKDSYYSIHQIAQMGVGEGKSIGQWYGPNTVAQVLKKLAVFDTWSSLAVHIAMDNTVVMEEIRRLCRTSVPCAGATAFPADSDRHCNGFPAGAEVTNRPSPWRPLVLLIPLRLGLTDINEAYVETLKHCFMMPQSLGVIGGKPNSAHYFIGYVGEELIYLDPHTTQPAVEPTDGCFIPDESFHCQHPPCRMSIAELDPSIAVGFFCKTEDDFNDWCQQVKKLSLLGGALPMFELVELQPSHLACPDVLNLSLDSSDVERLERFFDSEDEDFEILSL

Phospholipase A2 = Phospholipase A2 (Homo sapiens, UniProt P04054); assay type: functional;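 note: confirmatory dose-response counterscreen on phospholipase A2, testing hits that came from an ultra-high-throughput screen for ATG4B inhibitors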
Melanocortin receptor 4 = Melanocortin receptor 4 (Homo sapiens, UniProt P32245); assay: inhibitors of MC4R cAMP signaling – cell-based, TR-FRET, biased antagonists, dose response (AID 602298); assay type: functional;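 note: antagonist potency against agonist-stimulated cAMP production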
[6] = cAMP pathway inhibition in counterscreen cell line – TR-FRET cAMP detection, counter-screen for MC4R biased antagonist project, dose response (AID 602305); assay type: functional, cell-based;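 note: U2OS cells stimulated with forskolin near its EC80 as the cAMP inducer; potency is for inhibition of forskolin-stimulated cAMP signaling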
[7] = Luminescence Cell-Based Dose Retest to Confirm Inhibitors of Cancer Stem Cells. [Related pubchem assays (depositor defined):AID2717, AID2721]; assay type: functional; conditions: Homo sapiens
[8] = target: T4, Sentrin-specific protease 7 (Homo sapiens, UniProt Q9BQF6); assay type: functional;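 note: Luminescence-based dose-response confirmation of ultra-high-throughput screening hits, measuring inhibition of SENP7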
T4 sequence (Q9BQF6 whole entry): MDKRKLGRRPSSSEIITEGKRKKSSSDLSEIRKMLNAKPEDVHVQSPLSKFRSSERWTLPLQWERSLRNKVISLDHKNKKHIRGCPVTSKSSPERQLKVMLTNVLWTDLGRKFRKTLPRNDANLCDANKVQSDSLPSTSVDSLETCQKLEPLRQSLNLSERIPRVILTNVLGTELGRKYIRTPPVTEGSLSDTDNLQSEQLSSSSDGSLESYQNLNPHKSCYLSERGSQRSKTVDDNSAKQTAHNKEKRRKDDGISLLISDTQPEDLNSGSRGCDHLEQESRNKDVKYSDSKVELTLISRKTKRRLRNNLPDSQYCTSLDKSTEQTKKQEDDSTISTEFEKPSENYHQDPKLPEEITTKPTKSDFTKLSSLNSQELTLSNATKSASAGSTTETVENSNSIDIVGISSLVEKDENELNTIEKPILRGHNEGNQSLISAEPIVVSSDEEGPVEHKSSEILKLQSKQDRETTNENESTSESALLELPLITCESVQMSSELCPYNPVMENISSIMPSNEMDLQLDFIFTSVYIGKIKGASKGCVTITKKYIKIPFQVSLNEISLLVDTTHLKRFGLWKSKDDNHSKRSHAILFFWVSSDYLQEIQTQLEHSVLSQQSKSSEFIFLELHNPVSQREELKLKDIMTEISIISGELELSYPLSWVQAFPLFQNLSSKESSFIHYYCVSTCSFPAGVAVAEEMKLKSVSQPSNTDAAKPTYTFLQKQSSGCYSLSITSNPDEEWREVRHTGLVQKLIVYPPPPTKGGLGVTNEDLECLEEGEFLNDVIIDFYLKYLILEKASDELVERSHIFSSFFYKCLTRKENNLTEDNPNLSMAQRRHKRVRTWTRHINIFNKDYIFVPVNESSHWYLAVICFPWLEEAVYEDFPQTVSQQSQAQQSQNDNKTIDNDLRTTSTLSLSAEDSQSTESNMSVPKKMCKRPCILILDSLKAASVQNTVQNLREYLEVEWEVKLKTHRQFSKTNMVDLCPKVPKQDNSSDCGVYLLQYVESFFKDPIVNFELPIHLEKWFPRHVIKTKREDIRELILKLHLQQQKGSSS

[9] = target: T5, Sentrin-specific protease 8 (Homo sapiens, UniProt Q96LD8); assay type: functional;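 note: luminescence read-out of SENP8 inhibition, dose-response confirmation following an ultra-high-throughput screen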
T5 sequence (Q96LD8 whole entry): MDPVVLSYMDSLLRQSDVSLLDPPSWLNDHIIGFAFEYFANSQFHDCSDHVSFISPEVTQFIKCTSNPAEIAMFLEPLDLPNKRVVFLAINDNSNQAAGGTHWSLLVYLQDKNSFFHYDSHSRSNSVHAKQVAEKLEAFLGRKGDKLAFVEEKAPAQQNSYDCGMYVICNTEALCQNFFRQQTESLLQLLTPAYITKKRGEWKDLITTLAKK

Caspase-3 = target: T6, Caspase-3 (Homo sapiens, UniProt P42574); assay type: functional;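 note: Dose-response selectivity test against caspase-3 for candidate inhibitors of sentrin-specific proteases (SENPs)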
T6 sequence (P42574 whole entry): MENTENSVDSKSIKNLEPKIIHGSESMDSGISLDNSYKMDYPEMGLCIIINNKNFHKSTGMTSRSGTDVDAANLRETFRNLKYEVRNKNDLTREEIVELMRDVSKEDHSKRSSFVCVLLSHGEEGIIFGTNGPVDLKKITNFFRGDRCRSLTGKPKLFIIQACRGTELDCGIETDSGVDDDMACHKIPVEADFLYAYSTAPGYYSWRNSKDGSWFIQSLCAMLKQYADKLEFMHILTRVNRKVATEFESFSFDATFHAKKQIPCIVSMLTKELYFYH

[10] = target: T7, Sentrin-specific protease 6 (Homo sapiens, UniProt Q9GZR1); assay type: functional;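 note: Luminescence-based dose-response confirmatory assay of SENP6 inhibition, following up an ultra-high-throughput screen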
T7 sequence (Q9GZR1 whole entry): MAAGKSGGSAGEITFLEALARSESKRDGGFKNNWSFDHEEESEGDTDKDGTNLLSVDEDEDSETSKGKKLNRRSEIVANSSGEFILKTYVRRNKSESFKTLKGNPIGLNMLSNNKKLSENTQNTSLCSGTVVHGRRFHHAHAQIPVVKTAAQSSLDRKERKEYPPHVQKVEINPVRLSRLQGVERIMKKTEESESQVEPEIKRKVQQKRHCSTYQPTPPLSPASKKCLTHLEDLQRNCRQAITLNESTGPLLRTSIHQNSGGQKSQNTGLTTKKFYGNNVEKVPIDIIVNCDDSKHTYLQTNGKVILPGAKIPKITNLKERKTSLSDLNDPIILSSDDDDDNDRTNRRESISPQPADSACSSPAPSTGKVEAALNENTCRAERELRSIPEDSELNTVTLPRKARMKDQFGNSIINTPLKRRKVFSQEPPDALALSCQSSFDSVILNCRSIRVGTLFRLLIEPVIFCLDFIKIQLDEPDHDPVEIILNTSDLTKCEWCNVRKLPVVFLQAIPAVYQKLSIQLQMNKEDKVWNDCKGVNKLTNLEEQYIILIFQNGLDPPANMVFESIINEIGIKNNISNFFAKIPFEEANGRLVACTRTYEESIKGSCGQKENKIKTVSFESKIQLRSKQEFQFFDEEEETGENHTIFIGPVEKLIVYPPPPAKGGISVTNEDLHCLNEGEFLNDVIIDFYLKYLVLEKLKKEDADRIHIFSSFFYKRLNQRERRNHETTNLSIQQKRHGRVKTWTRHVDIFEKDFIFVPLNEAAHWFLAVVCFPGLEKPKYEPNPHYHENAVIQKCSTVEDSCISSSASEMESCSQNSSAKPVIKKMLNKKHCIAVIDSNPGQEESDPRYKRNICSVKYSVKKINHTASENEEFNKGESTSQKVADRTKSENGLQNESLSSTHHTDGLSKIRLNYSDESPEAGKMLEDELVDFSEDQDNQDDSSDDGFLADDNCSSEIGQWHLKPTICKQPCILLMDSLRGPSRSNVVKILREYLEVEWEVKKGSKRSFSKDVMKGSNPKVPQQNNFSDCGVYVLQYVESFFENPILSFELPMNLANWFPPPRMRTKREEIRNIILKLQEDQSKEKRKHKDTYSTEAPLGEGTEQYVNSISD

HeLa = assay: ATP-based viability loss in HeLa cells – cell-based, CellTiter-Glo luminescence, cherry-pick samples, cytotoxicity control for MITF activator project, dose response (AID 540259); assay type: functional; conditions: Homo sapiens

Chain of Melanocortin receptor 4 (P32245 whole entry): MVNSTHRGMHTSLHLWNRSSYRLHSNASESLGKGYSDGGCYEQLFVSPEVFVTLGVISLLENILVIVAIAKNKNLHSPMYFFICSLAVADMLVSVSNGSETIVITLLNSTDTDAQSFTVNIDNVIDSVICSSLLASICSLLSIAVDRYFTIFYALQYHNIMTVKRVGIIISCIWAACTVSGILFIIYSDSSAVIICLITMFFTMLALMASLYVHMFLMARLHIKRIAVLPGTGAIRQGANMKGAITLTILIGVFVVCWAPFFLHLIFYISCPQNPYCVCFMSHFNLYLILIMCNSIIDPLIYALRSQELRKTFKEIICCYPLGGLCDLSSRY
Chain of Phospholipase A2 (P04054 whole entry): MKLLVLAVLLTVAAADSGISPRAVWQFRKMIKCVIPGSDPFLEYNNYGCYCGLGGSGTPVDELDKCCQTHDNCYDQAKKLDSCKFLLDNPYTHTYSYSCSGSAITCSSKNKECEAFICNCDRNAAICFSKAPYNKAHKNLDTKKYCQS

| IC50 [8] | IC50 (Caspase-3) | IC50 [10] | Compound | IC50 [1] | IC50 (CHO-K1) | IC50 (Orexin receptor type 2 [2]) | IC50 (Orexin receptor type 2 [3]) | IC50 [4] | IC50 [5] | IC50 [9] | other results |
| --- | --- | --- | --- | --- | --- | --- | --- | --- | --- | --- | --- |
|  |  |  | Cc1c(NS(=O)(=O)c2cccc(C(=O)OCC(=O)N(C)C3CCCCC3)c2)c(=O)n(-c2ccccc2)n1C | 2.42 µM (active) | > 66.2 µM (inactive) | 1.2 µM (active) | 0.8 µM (active) | 0.142 µM (active) | > 49.7 µM (inactive) |  |  |
|  |  |  | Cc1oc(-c2ccccc2Cl)nc1C[S+]([O-])CC(=O)NCc1ccccc1Cl (stereo not given) |  |  |  |  |  |  |  | IC50 (Cysteine protease ATG4B): 16.8 µM (active); IC50 (Phospholipase A2): 7.47 µM (active) |
|  |  |  | O=C(Nc1ccccc1N1CCCCC1)c1ccc(Cl)c([N+](=O)[O-])c1 |  |  |  |  |  |  |  | IC50 (Melanocortin receptor 4): > 64.6 µM (inactive); IC50 [6]: > 64.6 µM (inactive); AC50 [7]: 3.19 µM (active) |
| 7.72 µM (active) | 24.3 µM (active) | 24.4 µM (active) | CCOC(=O)c1c(C)[nH]c(C(=O)OCC(=O)c2ccccc2)c1C |  |  |  |  |  |  | 26.4 µM (active) |  |
| 16.8 µM (active) | 18.9 µM (active) | > 100 µM (inactive) | O=C(Nc1nnc(CCc2ccccc2)s1)c1ccccc1F |  |  |  |  |  |  | > 100 µM (inactive) |  |
|  |  |  | COc1cccc(-c2cc(C(=O)Nc3ccccc3SC)no2)c1 | 3.59 µM (active) | > 66.2 µM (inactive) | > 88.8 µM (inactive) | > 50 µM (inactive) | 1.91 µM (active) | > 49.7 µM (inactive) |  | AC50 (HeLa): 97.5 µM (active) |
|  |  |  | Cc1nc2cc(-c3nc4ccccc4o3)ccc2[nH]1 | 6.1 µM (active) | > 66.2 µM (inactive) | > 88.8 µM (inactive) | > 50 µM (inactive) | 1.06 µM (active) | > 49.8 µM (inactive) |  |  |
|  |  |  | COc1ccc(Cl)cc1-n1c(=S)sc2c(O)nc(SCC(=O)NCCC(C)C)nc21 |  |  |  |  |  |  |  | IC50 (Cysteine protease ATG4B): 19.5 µM (active); IC50 (Phospholipase A2): 13.8 µM (active) |
|  |  |  | COc1cc(-c2nc3ccc4ccccc4c3c3c2CCC3)cc(OC)c1OC |  |  |  |  |  |  |  | IC50 (Melanocortin receptor 4): 43.1 µM (inactive); IC50 [6]: > 64.6 µM (inactive) |
| 5.94 µM (active) | 31.6 µM (active) | > 100 µM (inactive) | O=C(N/N=C/C(Br)=C\c1ccccc1)c1cccs1 |  |  |  |  |  |  | > 100 µM (inactive) |  |
